Bounds are passed on as bounds.

The subject of the data set is AsPC-1 cells. Kind of data set: Cytotoxicity test for oxaliplatin (WST-1 kit). The class given is cell-based. The settings on record: l-OHP solutions 48 hours. Here is the method:
An oxaliplatin (l-OHP) solution was prepared by dissolving oxaliplatin in a 9% sucrose solution (sucrose/distilled water) at a concentration of 8 mg/ml. The cell viability was determined using a commercially available cytotoxicity assay kit (WST-1 kit, Wako Pure Chemical Industries, Ltd., Japan).
AsPC-1 cells (provided by Dr. Hironobu Yanagie of Research Center for Advanced Science and Technology, the University of Tokyo, Japan) cultured in RPMI 1640 medium supplemented with 10% FCS (fetal calf serum; SIGMA, USA) were treated with concentrations of l-OHP solutions [200×(1/2)^(0-10) nM] at 37° C. in 5% CO2 for 48 hours. Then, the medium was removed and a substrate (WST-1, Cell Counting Kit, Dojindo Laboratories, Japan) was added to the cells which were incubated at 37° C. in 5% CO2 for 2 hours to develop the colored product. The developed color was measured at an absorbance of 450 nm (reference wavelength: 620 nm) on an Immuno Mini NJ-2300 (Cosmo Bio Co., Ltd., Japan).
A general note: Tetrazolium assays rely on reduction of a dye to a coloured formazan, in cell work by metabolically active cells.

Take `O=C1[O][Pt]2([NH]C3CCCCC3[NH]2)[O]C1=O` [l-OHP, cis-[(1R, 2R)-1,2-cyclohexanediamine-N,N′][oxalato(2)-O,O′]platinum]: the “cytotoxicity LD50” value was above 8 µg/mL.
